In brackets after ≈: the same amount, converted by molar mass.
Experiments:
Human KCNQ2/3 channel = Human KCNQ2/3 channel (Homo sapiens (Human), UniProt O43525+O43526); experiment: Opening action with respect to KCNQ2/3 channel by depolarization stimulation (thallium influx, FLIPR); type: cell-based; settings: concentration giving 50% of maximum reaction of retigabine (10 μM); human KCNQ2/3 expression CHO-DHFR- cells; 5 mM potassium and 0.5 mM thallium; read-out: KCNQ2/3 ECrtg50
Experimental: Human KCNQ2/3 expression cells (CHO-DHFR-cells) were seeded in each well of 384 well plate (collagen-coated, black, clear bottom) at 0.5×10^4 cells/50 μL per well, and cultured in a MEM ALPHA medium (containing 10 vol % inactivated (56° C., 30 min) Fetal Bovine Serum and 100 IU/mL Penicillin—100 μg/mL Streptomycin—2 mM L-Glutamine) at 37° C. in 5% CO2 for 18 to 24 hours. The medium in the plate was removed. Then, incubation (room temperature, 60 minutes, light-shielded) was carried out in a loading buffer (prepared by the method described in the manual of FluxOR Thallium Detection Kit (Invitrogen, F10016, F10017)). KCNQ2/3 channel opening action (thallium influx into cells) by the depolarization stimulation (5 mM potassium and 0.5 mM thallium) was measured by FLIPR TETRA (Molecular Devices). The compound of the present invention had been treated five minutes before the depolarization stimulation, and the reaction induced by the depolarization stimulation was measured over time for 180 seconds. The channel opening action of the compound of the present invention was evaluated based on the change amount of the fluorescence intensity from the time before the depolarization stimulation to the time after the passage of 180 seconds. Thus, the concentration (ECrtg50) satisfying 50% of the fluorescence intensity change of maximum reaction (at the time of 10 μM-treatment) of retigabine under this experiment condition was calculated.

[1] = system: urinary bladder extracted from rat; experiment: Relaxing action on urinary bladder extracted from rat (rat Magnus test); settings: concentration at which tension change rate is -20%; carbachol 1 μM-induced contraction of rat urinary bladder strips
Experimental: Female Jcl Wistar rats (CLEA Japan, Inc., body weight in use: 170 to 200 g) were anesthetized by intraperitoneal administration of about 40 mg/kg of pentobarbital (Somnopentyl, Schering Plough Animal Health Corporation), and killed by bloodletting, followed by abdominal incision to extract the urinary bladder. Immediately, the extracted urinary bladder was immersed in ice-cooled Krebs buffer (Krebs Ringer bicarbonate buffer (Sigma-Aldlich Co.) containing sodium hydrogencarbonate (final concentration: 15 mM) and calcium chloride (final concentration: 2.5 mM)) which had been saturated with a mixed gas (95% O2, 5% CO2).
The urinary bladder bodies were cut in the longitudinal direction to prepare strip specimens (about 10×3 mm) on ice. Immediately, the prepared specimens were suspended in a Magnus tube with 500 mg of tension loaded. The tube was filled with Krebs buffer (37° C.) aerated with a mixed gas. Note here that specimens were prepared within 24 hours after extraction of the tissue.
When one hour or more had passed after the specimen was suspended, 2.5M KCl was added so that the final concentration became 100 mM, specimens showing contraction reaction were used.
Carbachol (a contraction-inducing substance) at the concentration of contraction of 1 μM was used to induce contraction. […] After the contraction reaction was stabilized, a physiological salt solution or the compound of the present invention was added in a cumulative manner from low concentration such that the final concentration became 1, 10, 100 nM, 1 and 10 μM.
The tension (mg) of the extracted urinary bladder was employed as an evaluation parameter. The tension was read by using analysis software WAVE THERMO 1000. Tension after addition of the contraction-inducing substance was set to 0%. The change rate of the tension after addition of the compound of the present invention relative to the tension after addition of the contraction-inducing substance was defined as tension change rate (%). The tension change rate (%) was adopted as an evaluation indicator. The tension change rate (%) is calculated from the following formula. Tension change rate (%)={Tension after addition of compound of the present invention and the like (mg)−Tension before addition of contraction-inducing substance (mg)}/{Tension after addition of contraction-inducing substance (mg)−Tension before addition of contraction-inducing substance (mg)}×100−100
The value at which the tension change rate (%) was −20% was calculated as IC20, and the value was adopted as an indicator of the relaxing action of the extracted urinary bladder.

[2] = Solubility test (DMSO precipitation method, Pharmacopoeia of Japan elution test second solution); type: physicochemical; settings: aqueous buffer, kinetic from dmso stock; Pharmacopoeia of Japan elution test second solution pH=6.8, room temperature, five hours; quantitation range 5 to 100 μM
Experimental: A calibration curve solution was prepared by diluting a test substance (10 mM DMSO solution) with acetonitrile and adding acetonitrile including an internal standard substance (candesartan) so as to be 0.1, 0.4, and 2 μM.
Sample solution was prepared as follows: 5 μL of the compound of the present invention (10 mM DMSO solution) was added to 495 μL of the Pharmacopoeia of Japan elution test second solution (pH=6.8), and the resulting mixture was stirred at room temperature for five hours. Then, the solution was placed into a solubility filter plate and subjected to suction filtration. The filtrate (20 μL) was diluted with acetonitrile, followed by adding acetonitrile including an internal standard substance ([…]).
The calibration curve and sample solutions in the amount of 5 μL were infused into LC-MS/MS (Discovery Max manufactured by Thermo Scientific) and subjected to quantitation (quantitation range: 5 to 100 μM).

[3] = Evaluation of stability in human liver microsome; type: in vitro ADME; settings: human, 15 min, 5 μmol/L, pH 7.4
Experimental: A test compound (10 mmol/L DMSO solution, 5 μL) was diluted with 50% acetonitrile aqueous solution (195 μL) to prepare 0.25 mmol/L solution.
To a reactor vessel which had been warmed to 37° C. in advance, 0.5 mg/mL of human liver microsome (Xenotech) and 245 μL of 0.1 M phosphate buffer solution (pH 7.4) including NADPH-Co-factor (BD Biosciences) were added, followed by preincubation for five minutes. Then, the above-mentioned test compound solution (5 μL) was added so as to start reaction (final concentration: 5 μmol/L). Immediately after the start, 20 μL was harvested and added to 180 μL of acetonitrile including an internal standard substance (warfarin) to stop the reaction. This solution (20 μL) was stirred with 180 μL of 50% acetonitrile aqueous solution on a plate equipped with a deproteinization filter. Then, the resulting mixture solution was subjected to suction filtration. The filtrate was adopted as a standard sample.
The above-mentioned reaction solution was incubated at 37° C. for 15 minutes, and 20 μL of the solution was added to 180 μL of cooled acetonitrile (including warfarin that is an internal standard substance) to stop the reaction. This solution (20 μL) was stirred with 180 μL of 50% acetonitrile aqueous solution on a plate equipped with a deproteinization filter, and then the resulting mixture solution was subjected to suction filtration. The filtrate was adopted as a reaction sample.
Residual rate (%) was obtained as follows: 1 μL of the sample solution was infused into LC-MS/MS (Discovery Max manufactured by Thermo Scientific), and a quotient obtained by dividing a peak area ratio of the reaction sample (peak area of test compound/peak area of internal standard substance) was divided by the peak area ratio of the standard sample was multiplied by 100.

hERG channel = hERG channel (Homo sapiens (Human), UniProt Q12809); experiment: Evaluation of action on hERG IKr current (patch-clamp); type: cell-based; settings: HEK293 cell overexpressing hERG, maximum tail current, 10 minutes after application; read-out: IC50 (50% inhibitory activity of hERG channel)
hERG channel, sequence (Q12809 whole entry): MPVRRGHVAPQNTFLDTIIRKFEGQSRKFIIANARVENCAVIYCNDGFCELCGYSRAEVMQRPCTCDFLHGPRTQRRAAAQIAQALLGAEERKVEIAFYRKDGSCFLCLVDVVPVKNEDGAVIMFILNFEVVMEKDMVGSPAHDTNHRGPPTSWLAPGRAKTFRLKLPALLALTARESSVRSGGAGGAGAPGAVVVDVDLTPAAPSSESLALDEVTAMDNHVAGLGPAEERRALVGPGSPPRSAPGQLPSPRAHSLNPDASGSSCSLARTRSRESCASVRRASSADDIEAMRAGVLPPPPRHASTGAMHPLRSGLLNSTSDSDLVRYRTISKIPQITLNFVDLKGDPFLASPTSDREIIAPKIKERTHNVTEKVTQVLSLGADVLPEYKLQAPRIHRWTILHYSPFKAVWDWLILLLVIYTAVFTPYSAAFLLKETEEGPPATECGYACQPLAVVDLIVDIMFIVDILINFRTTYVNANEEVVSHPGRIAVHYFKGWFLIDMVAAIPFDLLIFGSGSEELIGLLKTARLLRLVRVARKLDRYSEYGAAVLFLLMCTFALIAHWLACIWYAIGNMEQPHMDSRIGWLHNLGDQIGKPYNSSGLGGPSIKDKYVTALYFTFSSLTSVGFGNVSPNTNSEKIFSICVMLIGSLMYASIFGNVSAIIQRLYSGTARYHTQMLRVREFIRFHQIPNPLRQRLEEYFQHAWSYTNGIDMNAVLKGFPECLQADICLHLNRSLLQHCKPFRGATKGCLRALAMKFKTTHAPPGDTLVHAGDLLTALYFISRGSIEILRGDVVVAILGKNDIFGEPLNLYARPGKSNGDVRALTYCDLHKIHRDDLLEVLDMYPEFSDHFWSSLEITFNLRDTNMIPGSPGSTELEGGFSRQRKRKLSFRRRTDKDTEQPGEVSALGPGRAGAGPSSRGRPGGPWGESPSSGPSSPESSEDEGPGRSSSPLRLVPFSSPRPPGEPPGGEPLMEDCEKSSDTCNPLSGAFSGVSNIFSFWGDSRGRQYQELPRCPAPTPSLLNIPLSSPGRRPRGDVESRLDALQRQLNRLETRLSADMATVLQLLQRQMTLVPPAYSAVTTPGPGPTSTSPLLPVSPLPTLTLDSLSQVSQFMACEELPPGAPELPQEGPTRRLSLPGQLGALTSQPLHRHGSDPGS
Experimental: Using HEK293 cell overexpressing a human ether-a-go-go-related gene (hERG), the maximum tale current of the hERG IKr current induced by redepolarization pulse subsequent to depolarization pulse was measured by a patch-clamp method.

Compound	EC50 (Human KCNQ2/3 channel) [nM]	IC20 [1] [nM]	solubility at 5 h [2] [µM]	Residual rate [3] [%]	IC50 (hERG channel) [nM]
C[C@](O)(c1cc(Cl)c(NC(=O)NCc2ncc(C(F)(F)F)cn2)c(Cl)c1)C(F)(F)F [Example 25 (1), 1-{2,6-dichloro-4-[(2S)-1,1,1-trifluoro-2-hydroxy-2-propanyl]phenyl}-3-{[5-(trifluoromethyl)-2-pyrimidinyl]methyl}urea]	1400	600	96 (≈ 45.8 µg/mL)	78	> 10000
C[C@](O)(c1cc(Cl)c(NC(=O)NCc2ccc(Cl)cn2)c(Cl)c1)C(F)(F)F [Example 25 (5), 1-[(5-chloro-2-pyridinyl)methyl]-3-{2,6-dichloro-4-[(2S)-1,1,1-trifluoro-2-hydroxy-2-propanyl]phenyl}urea]		500	98 (≈ 43.4 µg/mL)	87	> 10000
O=C(NCc1cnc(C(F)(F)F)nc1)Nc1c(Cl)cc([C@H](O)C(F)(F)F)cc1Cl [Example 35 (3), 1-{2,6-dichloro-4-[(1S)-2,2,2-trifluoro-1-hydroxyethyl]phenyl}-3-{[2-(trifluoromethyl)-5-pyrimidinyl]methyl}urea]	300	100	87 (≈ 40.3 µg/mL)	100	> 10000
C[C@](O)(c1cc(Cl)c(NC(=O)NCc2ccc(C(F)(F)F)nc2)c(Cl)c1)C(F)(F)F [Example 25 (2), 1-{2,6-dichloro-4-[(2S)-1,1,1-trifluoro-2-hydroxy-2-propanyl]phenyl}-3-{[6-(trifluoromethyl)-3-pyridinyl]methyl}urea]	300	200	86 (≈ 41 µg/mL)	80	> 10000
O=C(NCc1cnc(C(F)(F)F)s1)Nc1c(Cl)cc([C@@H](O)C(F)(F)F)cc1Cl [Example 33, 1-{2,6-dichloro-4-[(1R)-2,2,2-trifluoro-1-hydroxyethyl]phenyl}-3-{[2-(trifluoromethyl)-1,3-thiazole-5-yl]methyl}urea]	40	30	91 (≈ 42.6 µg/mL)	100	> 10000
C[C@@](O)(c1cc(Cl)c(NC(=O)NCc2ncc(C(F)(F)F)cn2)c(Cl)c1)C(F)(F)F [Example 22 (2), 1-{2,6-dichloro-4-[(2R)-1,1,1-trifluoro-2-hydroxy-2-propanyl]phenyl}-3-{[5-(trifluoromethyl)-2-pyrimidinyl]methyl}urea]	500	400	89 (≈ 42.5 µg/mL)	100	> 10000
NC(c1cc(Cl)c(NC(=O)NCc2ccc(C(F)(F)F)cn2)c(Cl)c1)C(F)(F)F (stereo not shown) [Example 79 (1), 1-[4-(1-amino-2,2,2-trifluoroethyl)-2,6-dichlorophenyl]-3-{[5-(trifluoromethyl)-2-pyridinyl]methyl}urea]	1600		87 (≈ 40.1 µg/mL)	82	> 10000
O=C(NCc1cnc(C(F)(F)F)nc1)Nc1c(Cl)cc([C@@H](O)C(F)(F)F)cc1Cl [Example 32 (3), 1-{2,6-dichloro-4-[(1R)-2,2,2-trifluoro-1-hydroxyethyl]phenyl}-3-{[2-(trifluoromethyl)-5-pyrimidinyl]methyl}urea]	500	100	100 (≈ 46.3 µg/mL)	100	> 10000
C[C@@](O)(c1cc(Cl)c(NC(=O)NCc2ccc(C(F)(F)F)cn2)c(Cl)c1)C(F)(F)F [Example 22 (1), 1-{2,6-dichloro-4-[(2R)-1,1,1-trifluoro-2-hydroxy-2-propanyl]phenyl}-3-{[5-(trifluoromethyl)-2-pyridinyl]methyl}urea]	60	300	77 (≈ 36.7 µg/mL)	100	> 10000
O=C(NCc1cnc(C(F)(F)F)s1)Nc1c(Cl)cc([C@H](O)C(F)(F)F)cc1Cl [Example 36, 1-{2,6-dichloro-4-[(1S)-2,2,2-trifluoro-1-hydroxyethyl]phenyl}-3-{[2-(trifluoromethyl)-1,3-thiazole-5-yl]methyl}urea]	30	10	44 (≈ 20.6 µg/mL)	100	> 10000
O=C(NCc1ncc(C(F)(F)F)cn1)Nc1c(Cl)cc([C@@H](O)C(F)(F)F)cc1Cl [Example 32 (4), 1-{2,6-dichloro-4-[(1R)-2,2,2-trifluoro-1-hydroxyethyl]phenyl}-3-{[5-(trifluoromethyl)-2-pyrimidinyl]methyl}urea]	200	200	77 (≈ 35.7 µg/mL)	100	> 10000
C[C@@](O)(c1cc(Cl)c(NC(=O)NCc2ccc(C(F)(F)F)nc2)c(Cl)c1)C(F)(F)F [Example 22 (3), 1-{2,6-dichloro-4-[(2R)-1,1,1-trifluoro-2-hydroxy-2-propanyl]phenyl}-3-{[6-(trifluoromethyl)-3-pyridinyl]methyl}urea]	200	300	81 (≈ 38.6 µg/mL)	98	> 10000
